Test results published in the NIST ThermoML archive (doi:10.1016/j.fluid.2018.10.024).

Assays:
[1] = refractive index (Na D-line) (dimensionless); conditions: 101.33 kPa, Liquid, Standard Abbe refractometry
[2] = 101.33 kPa, Liquid; for viscosity: Capillary tube (Ostwald / Ubbelohde) method; for mass density: Vibrating tube method
[3] = xn = mol fraction of the nth substance listed; conditions: 101 kPa, Liquid, x1 = 1; for viscosity: Capillary tube (Ostwald / Ubbelohde) method; for mass density: Vibrating tube method
[4] = refractive index (Na D-line) (dimensionless); xn = mol fraction of the nth substance listed; conditions: 101 kPa, Liquid, Standard Abbe refractometry, x1 = 1

ClC(Cl)Cl [trichloromethane]
Conditions | mass density, [2] [kg/m3] | refractive index, [1] | viscosity, [2] [mPa·s]
298.15 K | 1478.75 | 1.4422 | 0.5916
303.15 K | 1469.16 | 1.4397 | 0.558
308.15 K | 1460.01 | 1.4356 | 0.5333
313.15 K | 1450.39 | 1.4338 | 0.5072
318.15 K | 1440.03 | 1.4297 | 0.4849

CO [methanol]
Conditions | mass density, [2] [kg/m3] | refractive index, [1] | viscosity, [2] [mPa·s]
298.15 K | 787.21 | 1.3271 | 0.5467
303.15 K | 782.75 | 1.3245 | 0.5058
308.15 K | 777.56 | 1.323 | 0.4818
313.15 K | 772.97 | 1.3208 | 0.4484
318.15 K | 768.03 | 1.3184 | 0.4208

CC(C)=O [acetone] + ClC(Cl)Cl
Conditions | mass density, [3] [kg/m3] | refractive index, [4] | viscosity, [3] [mPa·s]
298.15 K | 784.41 | 1.3558 | 0.3034
303.15 K | 778.66 | 1.3534 | 0.2966
308.15 K | 773.08 | 1.3509 | 0.2831
313.15 K | 766.95 | 1.349 | 0.2689
318.15 K | 761.26 | 1.3449 | 0.2511

CO [methanol] + ClC(Cl)Cl
Conditions | mass density, [3] [kg/m3] | refractive index, [4] | viscosity, [3] [mPa·s]
298.15 K | 787.21 | 1.3271 | 0.5467
303.15 K | 782.75 | 1.3245 | 0.5058
308.15 K | 777.56 | 1.323 | 0.4765
313.15 K | 772.97 | 1.3208 | 0.4426
318.15 K | 768.03 | 1.3184 | 0.4153

CO [methanol] + CC(C)=O
Conditions | mass density, [3] [kg/m3] | refractive index, [4] | viscosity, [3] [mPa·s]
298.15 K | 787.21 | 1.3271 | 0.5467
303.15 K | 782.75 | 1.3245 | 0.5058
308.15 K | 777.56 | 1.323 | 0.4818
313.15 K | 772.97 | 1.3208 | 0.4484
318.15 K | 768.03 | 1.3184 | 0.4208

CC(C)=O [acetone]
Conditions | mass density, [2] [kg/m3] | refractive index, [1] | viscosity, [2] [mPa·s]
298.15 K | 784.41 | 1.3558 | 0.3034
303.15 K | 778.66 | 1.3534 | 0.2966
308.15 K | 773.08 | 1.3509 | 0.2831
313.15 K | 766.95 | 1.349 | 0.2689
318.15 K | 761.26 | 1.3449 | 0.2511
